The target of test [1] is muscarinic acetylcholine receptors. Description: inhibition of specific binding of ^3 H-Oxotremorine-M (^3 H-Oxo). Set-up: species or system rat (male Wistar. The note with it: ^3 H-Oxotremorine 1.0 nM, rat cortex, 30 min. at 25° C. An excerpt: The pharmacological properties of the compounds of the invention can be illustrated by determining their capability to inhibit the specific binding of ^3 H-Oxotremorine-M (^3 H-Oxo). Birdsdall N. J. M., Hulme E. C., and Burgen A. S. V. (1980). "The Character of Muscarinic Receptors in Different Regions of the Rat Brain" Proc. Roy. Soc. London (Series B) 207,1.
^3 H-Oxo labels muscarinic receptor in the CNS (with a preference for agonist domains of the receptors). Three different sites are labeled by ^3 H-Oxo. […] Using the present experimental conditions only the high and medium affinity sites are determined.
The inhibitory effects of compounds on ^3 H-oxo binding reflects the affinity for muscarinic acetylcholine receptors.
All preparations are performed at 0°-4° C. unless otherwise indicated. Fresh cortex (0.1-1 g) from male Wistar rats (150-250 g) is homogenized for 5-10 seconds in 10 mL […] Hepes pH: 7.4, with an Ultra-Turrax homogenizer. The homogenizer is rinsed with 10 mL of buffer and the combined suspension centrifuged for 15 min. at 40,000×g. The pellet is washed three times with buffer. In each step the pellet is homogenized as before in 2×10 mL of buffer and centrifuged for 10 min. at 40,000×g.
The final pellet is homogenized in 20 mM Hepes pH: 7.4 (100 mL per g of original tissue) and used for binding assay. Aliquots of 0.5 mL is added 25 μL of test solution and 25 μL of ^3 H-Oxotremorine (1.0 nM, final concentration) mixed and incubated for 30 min. at 25° C. Non-specific binding is determined in triplicate using arecoline ([…], final concentration) as the test substance. After incubation samples are added 5 mL of ice-cold buffer and poured directly onto Whatman GF/C glass fiber filters under suction and immediately washed 2 times with 5 mL of ice-cold buffer. The amount of radioactivity on the filters are determined by conventional liquid scintillation counting. Specific binding is total binding minus non specific binding.
Test substances are dissolved in 10 mL water (if necessary heated on a steam-bath for less than 5 min.) at a concentration of 2.2 mg/mL. […] The test value will be given as IC50 (the concentration (nM) of the test substance which inhibits the specific binding of ^3 H-oxo by 50%). IC50 =(applied test substance concentration) x(Cx /Co -Cx)nM where Co is specific binding in control assays and Cx is the specific binding in the test assay. (The calculations assume normal mass-action kinetics).

For test [2], the target named is T1, muscarinic receptors (M1 -site, pirenzepine sensitive site) (Rattus norvegicus, UniProt P08482).
T1 construct: from tissue; host or cells: cerebral cortex membranes of male Wistar rats
T1 sequence (P08482 1-460): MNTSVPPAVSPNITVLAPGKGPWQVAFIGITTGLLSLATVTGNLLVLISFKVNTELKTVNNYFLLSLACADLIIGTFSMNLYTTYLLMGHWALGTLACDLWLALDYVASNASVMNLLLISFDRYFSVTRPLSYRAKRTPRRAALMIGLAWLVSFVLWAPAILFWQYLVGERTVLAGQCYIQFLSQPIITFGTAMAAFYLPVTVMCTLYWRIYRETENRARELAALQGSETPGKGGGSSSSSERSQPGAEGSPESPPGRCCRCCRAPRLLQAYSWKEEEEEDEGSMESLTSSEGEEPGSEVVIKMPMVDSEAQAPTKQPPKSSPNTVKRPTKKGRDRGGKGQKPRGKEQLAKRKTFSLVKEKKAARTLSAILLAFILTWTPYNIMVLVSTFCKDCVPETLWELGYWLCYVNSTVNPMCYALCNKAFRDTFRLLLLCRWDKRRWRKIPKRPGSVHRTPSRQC
Description: inhibition of ^3 HPRZ (pirenzepine, [N-methyl-^3 H]) binding to rat cerebral cortex membranes. Also on record: species or system rat (male Wistar. Here is the method: Furthermore the pharmacological properties of the compounds of the invention can also be illustrated by determining their capability to inhibit ^3 HPRZ (pirenzepine, [N-methyl-^3 H]) binding to rat cerebral cortex membranes.
Pirenzepine binds selectively to subtype of muscarinic receptors. Historically the type is named the M1 -site, whereas pirenzepine sensitive site would be more appropriate.
All preparations are performed at 0°-4° C. unless otherwise indicated. Fresh cortex ([…]) from male Wistar rats (150-200 g) is homogenized for 5-10 s in 10 mL 20 mM Hepes pH: 7.4, with an Ultra-Turrax homogenizer. The homogenizer is rinsed with 2×10 mL of buffer and the combined suspension centrifuged for 15 min. at 40,000×g. The pellet is washed three times with buffer. In each step the pellet is homogenized as before in 3×10 mL of buffer and centrifuged for 10 min. at 40,000×g.
The final pellet is homogenized in 20 mM Hepes pH: 7.4 (100 mL per g of original tissue) and used for binding assay. Aliquots of 0.5 mL is added 20 μl of test solution and 25 μL of ^3 HPRZ (1.0 nM, final conc.), mixed and incubated for 60 min. at 20° C. Non-specific binding is determined in triplicate using atropine (1 ,μg/mL, final conc.) as the test substance. After incubation samples are added 5 mL of ice-cold buffer and poured directly onto Whatman GF/C glass fiber filters under suction and immediately washed 2 times with 5 mL of ice-cold buffer. The amount of radioactivity on the filters are determined by conventional liquid scintillation counting. Specific binding is total binding minus non-specific binding.
Test substances are dissolved in 10 mL water, at a concentration of 0.22 mg/mL.
The test value will be given as IC50 (the concentration (nM) of the test substance which inhibits the specific binding of ^3 HPRZ by 50%). IC50 =(applied test substance concentration) x(Cx /Co -Cx)nM where Co is specific binding in control assays and Cx is the specific binding in the test assay. (The calculations assume normal mass-action kinetics).

Setting [3] is: ^3 HPRZ 1.0 nM, rat cortex, 60 min. at 20° C., read-out: ^3 HPRZ IC50 (head from b208 on: Pir IC-50).

Where two headings read alike, the source gives them in different places.

Consider 21 molecules from US5665745A, “Heterocyclic compounds and their preparation and use” (Eli Lilly and Company, priority 1995, dated 1997).

As usually defined, the IC50 is the concentration that inhibits the measured activity by half. On to `CCCCCCOc1nsnc1OC1CC2CCC1NC2` (mixture of isomers) [Compound 161, (±)-exo-3-(Hexyloxy)-4-(2-azabicyclo[2.2.2]octyl-6-oxy)-1,2,5-thiadiazole], for which the IC50 was 6.8 nM in test [1] and 5.3 nM in test [2] (setting [3]).
Regarding `c1ccc(CCSc2nsnc2OC2CN3CCC2CC3)cc1` (racemic) [Compound 43, (±)-3-(2-Phenylethylthio)-4-(1-azabicyclo[2.2.2]octyl-3-oxy)-1,2,5-thiadiazole], the IC50 in test [1] came out at 29 nM; in test [2] it was 33 nM.
Regarding `CSc1ccc(COc2nsnc2O[C@@H]2CN3CCC[C@H]2C3)cc1` (relative stereo) [Compound 172, (±)-endo-3-(4-Methylthiobenzyloxy)-4-(1-azabicyclo[3.2.1]octyl-6-oxy)-1,2,5-thiadiazole], the IC50 is 5.2 nM in test [1] and 10 nM in test [2] (setting [3]).
The corresponding values for `CCCCOc1nsnc1OC1CCNC1` (racemic) [Compound 27, (±)-3-Butyloxy-4-(3-pyrrolidinyloxy)-1,2,5-thiadiazole] are 123 nM and 370 nM.
`CCCCOc1nsnc1OC1CC2CCC(C1)N2C` (stereo not drawn) [Compound 45]: the values for the IC50 in test [1] and in test [2] were 29 nM and 4.6 nM, respectively.
As for `FC(F)(F)CCCOc1nsnc1O[C@@H]1CN2CCC[C@H]1C2` (relative stereo) [Compound 167, (±)-endo-3-(4,4,4-Trifluorobutoxy)-4-(1-azabicyclo[3.2.1]octyl-6-oxy)-1,2,5-thiadiazole], the figures for the IC50 in test [1] and in test [2] (setting [3]) were 2.8 nM and 2 nM, respectively.
Regarding `c1ccc(CCCSc2nsnc2OC2CN3CCC2CC3)cc1` (racemic) [Compound 40, (±)-3-(3-Phenylpropylthio)-4-(1-azabicyclo[2.2.2]octyl-3-oxy)-1,2,5-thiadiazole], the IC50 in test [1] was 1.8 nM; in test [2] it was 2.5 nM.
Take `CC(C)CCCOc1nsnc1OC1CN2CCC1CC2` (racemic) [Compound 11, (±)-3-(4-Methylpentyloxy)-4-(1-azabicyclo[2.2.2]octyl-3-oxy)-1,2,5-thiadiazole]: the IC50 in test [1] worked out at 29 nM; in test [2] it was 33 nM.
In the case of `CCCCSc1nsnc1O[C@H]1CN2CCC[C@@H]1C2` (relative stereo) [Compound 70, (±)3-(1-Butylthio)-4-[endo-6-(1-azabicyclo[3.2.1]octyloxy)]-1,2,5-thiadiazole], the IC50 in test [1] amounted to 1.3 nM; in test [2] (setting [3]), 0.65 nM.
For `CC(C)CCCSc1nsnc1OC1CN2CCC1CC2` (racemic) [Compound 39, (±)-3-(4-Methylpentylthio)-4-(1-azabicyclo[2.2.2]octyl-3-oxy)-1,2,5-thiadiazole], the IC50 in test [1] came out at 13 nM; in test [2], 15 nM.
As to `Cc1ncsc1CCOc1nsnc1O[C@@H]1CN2CCC[C@H]1C2` (relative stereo) [Compound 171, (±)-endo-3-(2-(4-Methyl-1,3-thiazol-5-yl)ethoxy)-4-(1-azabicyclo[3.2.1]octyl-6-oxy)-1,2,5-thiadiazole], the figures for the IC50 in test [1] and in test [2] (setting [3]) were 19 nM and 27 nM, respectively.
In the case of `Fc1ccc(OC(CCSc2nsnc2OC2CN3CCC2CC3)c2ccc(F)cc2)cc1` (racemic) [Compound 152, (±)-3-(3-[4-fluorophenyl]-3-[4-fluorophenoxy]propylthio)-4-(1-azabicyclo[2.2.2]octyl-3-oxy)-1,2,5-thiadiazole], the IC50 in test [1] came out at 436 nM; in test [2] (setting [3]), 243 nM.
With `c1ccc(CCCSc2nsnc2O[C@H]2CN3CCC[C@@H]2C3)cc1` (relative stereo) [Compound 72, (±)3-(3-Phenylpropylthio)-4-[endo-6-(1-azabicyclo[3.2.1].cent.octyloxy)]-1,2,5-thiadiazole], the IC50 in test [1] worked out at 1.9 nM; in test [2] (setting [3]), 0.55 nM.
Turning to `FC(F)(F)C(F)(F)COc1nsnc1O[C@@H]1CN2CCC[C@H]1C2` (relative stereo) [Compound 190, (±)-endo-3-(3,3,3,2,2,Pentafluoropropoxy)-4-(1-azabicyclo[3.2.1]octyl-6-oxy)-1,2,5-thiadiazole], the IC50 in test [1] turned out to be 3.9 nM; in test [2] (setting [3]), 2.5 nM.
The corresponding values for `CCCCOc1nsnc1SCCN(C)C` [Compound 36, 3-Butyloxy-4-(2-(dimethylamino)ethylthio)-1,2,5-thiadiazole] are 204 nM and 217 nM.
Turning to `FC(F)(F)c1ccc(OC(CCSc2nsnc2OC2CN3CCC2CC3)c2ccccc2)cc1` (racemic) [Compound 153, (±)-3-(3-Phenyl-3-[4-trifluoromethylphenoxy]propylthio)-4-(1-azabicyclo[2.2.2]octyl-3-oxy)-1,2,5-thiadiazole], the IC50 in test [1] amounted to 597 nM; in test [2] (setting [3]), 205 nM.
Turning to `Fc1ccc(CCCSc2nsnc2OC2CN3CCC2CC3)cc1` (racemic) [Compound 73, (±)3-[3-(4-Fluorophenyl)propylthio]-4-[-3-(1-azabicyclo[2.2.2]octyloxy)]-1,2,5-thiadiazole], the results for the IC50 in test [1] and in test [2] were 4.1 nM and 6.5 nM, respectively.
In the case of `CCCCCSc1nsnc1O[C@H]1CN2CCC[C@H]1C2` (relative stereo) [Compound 23, (±)-exo-3-Pentylthio-4-(1-azabicyclo[3.2.1]octyl-6-oxy)-1,2,5-thiadiazole], the IC50 in test [1] was 55 nM; in test [2] (setting [3]), 18 nM.
As for `C(#Cc1ccccc1)COc1nsnc1OC1CN2CCC1CC2` (racemic) [Compound 107, (±)-3-(3-phenylpropynyloxy)-4-(1-azabicyclo[2.2.2]octyl-3-oxy)-1,2,5-thiadiazole], the IC50 is 9.6 nM in test [1] and 22.4 nM in test [2].
Take `CCCCSc1nsnc1O[C@@H]1CCC[C@H]1N(C)C` (racemic) [Compound 143, (±)-trans-3-Butylthio-4-(2-dimethylaminocyclopentyloxy)-1,2,5-thiadiazole]: the IC50 in test [1] came out at 1400 nM; in test [2] (setting [3]) it was 637 nM.
Consider `N#Cc1ccc(CSc2nsnc2O[C@H]2CN3CCC[C@@H]2C3)cc1` (relative stereo) [Compound 49, (±)-endo-3-(4-Cyanobenzylthio)-4-(1-azabicyclo[3.2.1]octyl-6-oxy)-1,2,5-thiadiazole], for which the IC50 was found to be 1.8 nM in test [1] and 1.9 nM in test [2] (setting [3]).
